# Source: US8722849B2, “Polypeptides” (Novo Nordisk A/S, priority 2011, dated 2014)
# Read-outs that look alike come from different tables or passages of the source. Starred links: 1 amine or outer side, 2 acyl side, 3 side chain; linkers in the order of their positions; H or OH if unused. Positions of bridges follow the written chain, without caps; N, C: chain ends. Residues, ends and D or L forms follow the SMILES beside them. *: point of attachment. C20 diacid = O=C(O)CCCCCCCCCCCCCCCCCCC(=O)*; γGlu = O=C(O)[C@H](CCC(=O)[*:2])N[*:1]
# Experiments:
# [1] = molecular target: T1, human amylin receptor (amylin 3(a) receptor: human calcitonin receptor + RAMP-3) (Homo sapiens, UniProt O60896+P30988); test: Assay (II)a functional CRE-luciferase assay, human amylin receptor; type: cell-based; conditions: Table 2; BHK amylin 3(a)-receptor/CRE-luc cells
# T1 construct: expressed in transfected cells; host or cells: BHK570
# T1 sequence (P30988 25-474): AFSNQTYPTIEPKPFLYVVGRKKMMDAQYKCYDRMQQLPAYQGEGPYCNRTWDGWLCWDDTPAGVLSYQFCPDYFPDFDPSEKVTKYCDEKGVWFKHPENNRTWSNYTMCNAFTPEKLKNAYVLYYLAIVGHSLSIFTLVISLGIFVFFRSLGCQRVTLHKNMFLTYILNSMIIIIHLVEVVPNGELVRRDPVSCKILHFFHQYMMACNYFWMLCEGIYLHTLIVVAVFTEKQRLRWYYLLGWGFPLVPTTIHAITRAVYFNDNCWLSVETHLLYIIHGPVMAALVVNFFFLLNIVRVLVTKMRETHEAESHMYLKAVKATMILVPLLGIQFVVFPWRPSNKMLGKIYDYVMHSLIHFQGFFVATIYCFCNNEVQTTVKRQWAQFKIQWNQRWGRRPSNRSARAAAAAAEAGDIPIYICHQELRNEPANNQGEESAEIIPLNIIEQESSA
# T1 sequence (O60896 24-148 partner): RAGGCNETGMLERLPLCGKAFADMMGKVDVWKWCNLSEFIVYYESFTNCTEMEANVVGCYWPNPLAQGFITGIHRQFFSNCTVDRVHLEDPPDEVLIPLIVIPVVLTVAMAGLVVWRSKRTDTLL
# [2] = molecular target: T2, rat calcitonin (a) receptor (Rattus norvegicus, UniProt P32214); test: Assay (II)b functional cAMP FlashPlate assay, rat calcitonin receptor; type: cell-based; conditions: Table 11; read-out: CTa receptor rat EC50
# T2 construct: expressed in transfected cells; host or cells: BHK tk'ts 13
# T2 sequence (P32214 25-479 isoform P32214-2 limits assumed): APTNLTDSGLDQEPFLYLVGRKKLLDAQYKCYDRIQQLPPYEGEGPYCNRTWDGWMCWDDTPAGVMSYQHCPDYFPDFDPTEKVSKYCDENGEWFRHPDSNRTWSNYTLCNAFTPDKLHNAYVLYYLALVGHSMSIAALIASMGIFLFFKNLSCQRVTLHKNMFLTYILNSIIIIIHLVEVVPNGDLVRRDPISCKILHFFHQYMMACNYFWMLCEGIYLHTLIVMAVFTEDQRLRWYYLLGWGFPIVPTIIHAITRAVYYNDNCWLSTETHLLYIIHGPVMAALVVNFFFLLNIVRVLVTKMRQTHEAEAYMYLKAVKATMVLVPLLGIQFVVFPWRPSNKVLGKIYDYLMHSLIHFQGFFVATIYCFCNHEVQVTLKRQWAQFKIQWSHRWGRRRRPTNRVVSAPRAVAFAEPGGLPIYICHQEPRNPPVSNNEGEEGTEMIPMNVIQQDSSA
# Procedure, shortened: (§1)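 BHK tk'ts 13 cells transiently transfected with rat calcitonin(a) receptor, alone or with rat RAMP3 (amylin 3(a)), were stimulated 24 hours later with sample for 30 min in buffer containing IBMX. cAMP measured by competitive radioactive FlashPlate assay, scintillation read after 3 h detection incubation.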
# [3] = molecular target: T3, human calcitonin receptor (Homo sapiens, UniProt P30988); test: Assay (II)a functional CRE-luciferase assay, human calcitonin receptor; type: cell-based; conditions: Table 7; human calcitonin (CTa) receptor
# T3 construct: expressed in transfected cells; host or cells: BHK570
# T3 sequence (P30988 25-474): T1 sequence (P30988 25-474)
# [4] = molecular target: T4, rat amylin 3(a) receptor (rat calcitonin(a) receptor + rat RAMP3) (Rattus norvegicus, UniProt P32214+Q9JJ73); test: Assay (II)b functional cAMP FlashPlate assay, rat amylin receptor; type: cell-based; conditions: Table 11
# T4 construct: expressed in transfected cells; host or cells: BHK tk'ts 13
# T4 sequence (P32214 25-479 isoform P32214-2 limits assumed): T2 sequence (P32214 25-479 isoform P32214-2 limits assumed)
# T4 sequence (Q9JJ73 23-147 partner): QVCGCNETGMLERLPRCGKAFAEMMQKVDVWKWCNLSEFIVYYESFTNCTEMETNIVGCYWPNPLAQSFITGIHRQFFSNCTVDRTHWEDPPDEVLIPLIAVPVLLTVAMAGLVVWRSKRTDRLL
# Procedure, shortened: as §1
# [5] = Assay (IV) determination of solubility; type: physicochemical
# Procedure, shortened: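 Polypeptide in water (~500 nmol/ml) mixed 1:1 with 100 mM glycylglycine (pH 3.0–5.0) or bistrispropane (pH 6.0–8.0) buffers. Held 18 hours at room temperature, then centrifuged. Polypeptide remaining in solution quantified by HPLC.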
# [6] = bistrispropane buffer, pH 6, pH 6.0, read-out: Solubility pH 6.0
# [7] = bistrispropane buffer, pH 6.5, pH 6.5, read-out: Solubility pH 6.5
# [8] = bistrispropane buffer, pH 7, pH 7.0, 18 hours at room temperature, Table 3, read-out: Solubility pH 7.0
# [9] = bistrispropane buffer, pH 7, pH 7.0, read-out: Solubility pH 7.0
# [10] = bistrispropane buffer, pH 7.5, pH 7.5, read-out: Solubility pH 7.5
# [11] = bistrispropane buffer, pH 8, pH 8.0, read-out: Solubility pH 8.0
# [12] = glycylglycine buffer, pH 3, pH 3.0, read-out: Solubility pH 3.0
# [13] = glycylglycine buffer, pH 4, pH 4.0, 18 hours at room temperature, Table 2, read-out: Solubility pH 4.0
# [14] = glycylglycine buffer, pH 4, pH 4.0, read-out: Solubility pH 4.0
# [15] = glycylglycine buffer, pH 5, pH 5.0, read-out: Solubility pH 5.0
EC50 [1] [nM],EC50 [2] [nM],EC50 [3] [nM],EC50 [4] [nM],"solubility at 18 h [5, 6] [µM]","solubility at 18 h [5, 7] [µM]","solubility at 18 h [5, 8] [µM]","solubility at 18 h ([5]; bistrispropane buffer, pH 7, pH 7.0, Table 8, read-out: Solubility pH 7.0) [µM]","solubility at 18 h ([5]; bistrispropane buffer, pH 7, pH 7.0, Table 9, read-out: Solubility pH 7.0) [µM]","solubility at 18 h [5, 9] [µM]","solubility at 18 h ([5]; bistrispropane buffer, pH 7.5, pH 7.5, Table 9, read-out: Solubility pH 7.5) [µM]","solubility at 18 h [5, 10] [µM]","solubility at 18 h [5, 11] [µM]","solubility at 18 h [5, 12] [µM]","solubility at 18 h [5, 13] [µM]","solubility at 18 h [5, 14] [µM]","solubility at 18 h [5, 15] [µM]",SMILES
0.043,0.058,0.055,0.088,> 200,> 200,> 200,> 200,> 200,> 200,> 200,> 200,> 200,> 200,> 200,> 200,> 200,"CC[C@H](C)[C@H](NC(=O)[C@@H]1CCCN1C(=O)CNC(=O)[C@H](Cc1ccccc1)NC(=O)[C@H](CC(N)=O)NC(=O)[C@H](CC(N)=O)NC(=O)[C@H](CO)NC(=O)[C@H](CO)NC(=O)[C@H](Cc1c[nH]cn1)NC(=O)[C@H](Cc1c[nH]cn1)NC(=O)[C@H](CC(C)C)NC(=O)[C@H](Cc1ccccc1)NC(=O)[C@H](CCC(=O)O)NC(=O)[C@H](C)NC(=O)[C@H](CC(C)C)NC(=O)[C@H](CCCNC(=N)N)NC(=O)[C@H](CCC(N)=O)NC(=O)[C@@H](NC(=O)[C@H](C)NC(=O)[C@@H]1CSSC[C@H](NC(=O)[C@H](CCCNC(=N)N)NC(=O)CC[C@H](NC(=O)CCCCCCCCCCCCCCCCCCC(=O)O)C(=O)O)C(=O)N[C@@H](CC(N)=O)C(=O)N[C@@H]([C@@H](C)O)C(=O)N[C@@H](C)C(=O)N[C@@H]([C@@H](C)O)C(=O)N1)[C@@H](C)O)C(=O)N[C@@H](CC(C)C)C(=O)N1CCC[C@H]1C(=O)N1CCC[C@H]1C(=O)N[C@H](C(=O)N[C@@H](CC(N)=O)C(=O)N[C@H](C(=O)NCC(=O)N[C@@H](CO)C(=O)N[C@@H](CC(N)=O)C(=O)N[C@H](C(=O)N1CCC[C@H]1C(N)=O)[C@@H](C)O)C(C)C)[C@@H](C)O [Example 96, N-alpha-[(S)-4-Carboxy-4-(19-carboxynonadecanoylamino)butyryl]-[Arg1,Glu14,His17,Pro37]-pramlintide] ({C20 diacid-γGlu}-RCNTATCATQRLAEFLHHSSNNFGPILPPTNVGSNTP-NH2; disulfide 2-7 (inferred))"
0.121,1.04,0.0855,0.224,45,1,,,,4,,104,> 200,> 200,> 200,> 200,> 200,"CC[C@H](C)[C@H](NC(=O)[C@@H]1CCCN1C(=O)CNC(=O)[C@H](Cc1ccccc1)NC(=O)[C@H](CC(N)=O)NC(=O)[C@H](CC(N)=O)NC(=O)[C@H](CO)NC(=O)[C@H](CO)NC(=O)[C@H](Cc1c[nH]cn1)NC(=O)[C@H](Cc1c[nH]cn1)NC(=O)[C@H](CC(C)C)NC(=O)[C@H](Cc1ccccc1)NC(=O)[C@H](CCC(=O)O)NC(=O)[C@H](C)NC(=O)[C@H](CC(C)C)NC(=O)[C@H](CCCNC(=N)N)NC(=O)[C@H](CCC(N)=O)NC(=O)[C@@H](NC(=O)[C@H](C)NC(=O)[C@@H]1CSSC[C@H](NC(=O)[C@H](Cc2c[nH]cn2)NC(=O)CC[C@H](NC(=O)CCCCCCCCCCCCCCCCCCC(=O)O)C(=O)O)C(=O)N[C@@H](CC(N)=O)C(=O)N[C@@H]([C@@H](C)O)C(=O)N[C@@H](C)C(=O)N[C@@H]([C@@H](C)O)C(=O)N1)[C@@H](C)O)C(=O)N[C@@H](CC(C)C)C(=O)N1CCC[C@H]1C(=O)N1CCC[C@H]1C(=O)N[C@H](C(=O)N[C@@H](CC(N)=O)C(=O)N[C@H](C(=O)NCC(=O)N[C@@H](CO)C(=O)N[C@@H](Cc1c[nH]cn1)C(=O)N[C@H](C(=O)N[C@@H](Cc1ccc(O)cc1)C(N)=O)[C@@H](C)O)C(C)C)[C@@H](C)O [Example 76, N-alpha-[(S)-4-Carboxy-4-(19-carboxynonadecanoylamino)butyryl]-[His1,Glu14,His17,His35]-pramlintide] ({C20 diacid-γGlu}-HCNTATCATQRLAEFLHHSSNNFGPILPPTNVGSHTY-NH2; disulfide 2-7 (inferred); C-terminus assumed)"
0.13,1.39,0.214,0.476,> 200,> 200,> 200,,,> 200,,> 200,> 200,> 200,> 200,> 200,> 200,"CC[C@H](C)[C@H](NC(=O)[C@@H]1CCCN1C(=O)CNC(=O)[C@H](Cc1ccccc1)NC(=O)[C@H](CC(N)=O)NC(=O)[C@H](CC(N)=O)NC(=O)[C@H](CO)NC(=O)[C@H](CO)NC(=O)[C@H](Cc1c[nH]cn1)NC(=O)[C@H](Cc1c[nH]cn1)NC(=O)[C@H](CC(C)C)NC(=O)[C@H](Cc1ccccc1)NC(=O)[C@H](CCC(=O)O)NC(=O)[C@H](C)NC(=O)[C@H](CC(C)C)NC(=O)[C@H](CCCNC(=N)N)NC(=O)[C@H](CCC(N)=O)NC(=O)[C@@H](NC(=O)[C@H](C)NC(=O)[C@@H]1CSSC[C@H](NC(=O)[C@H](CCCCN)NC(=O)[C@H](CCC(=O)O)NC(=O)CC[C@H](NC(=O)CCCCCCCCCCCCCCCCCCC(=O)O)C(=O)O)C(=O)N[C@@H](CC(N)=O)C(=O)N[C@@H]([C@@H](C)O)C(=O)N[C@@H](C)C(=O)N[C@@H]([C@@H](C)O)C(=O)N1)[C@@H](C)O)C(=O)N[C@@H](CC(C)C)C(=O)N1CCC[C@H]1C(=O)N1CCC[C@H]1C(=O)N[C@H](C(=O)N[C@@H](CC(N)=O)C(=O)N[C@H](C(=O)NCC(=O)N[C@@H](CO)C(=O)N[C@@H](CC(N)=O)C(=O)N[C@H](C(=O)N[C@@H](Cc1ccc(O)cc1)C(N)=O)[C@@H](C)O)C(C)C)[C@@H](C)O [Example 26, N-alpha-[(S)-4-Carboxy-4-(19-carboxynonadecanoylamino)butyryl]-Glu-[Glu14,His17]-pramlintide] ({C20 diacid-γGlu}-EKCNTATCATQRLAEFLHHSSNNFGPILPPTNVGSNTY-NH2; disulfide 3-8 (inferred); C-terminus assumed)"
